# In US10357514B2, “Treatment of cancer using anti-CD19 Chimeric Antigen Receptor” (The Trustees of the University of Pennsylvania, priority 2014, dated 2019):
# Entries after “also recorded” stand apart in the source; their conditions may differ. Like-named read-outs stand apart in the source and are kept apart here.
# Experiments:
# [1] = system: PD-1-positive CD4 and CD8 and PD-1-negative CD4 T cells; experiment: FACS analysis of PD-1 on T cells in PBMC samples of subjects given RAD001; type: in vivo, human
# [2] = system: 3 influenza vaccine strains; experiment: Primary endpoint: HI GMT ratio relative to placebo in at least 2 out of 3 influenza vaccine strains; type: in vivo, human; conditions: for primary endpoint (>=1.2-fold GMT increase relative to placebo in at least 2 of 3 strains): ITT population
# Text: The primary analysis of geometric mean titer ratios was done using a normal Bayesian regression model with non-informative priors. This model was fitted to each antibody titer on the log scale. The primary outcome in each model was the Day 84 measurement. The Day 63 measurement was included in the outcome vector. The model fitted using SAS 9.2 proc mixed with the prior statement. The covariance structure of the matrix was considered as unstructured (option type=UN). A flat prior was used. For the secondary analysis of seroconversion rates, logistic regression was used.
# The intention to treat population was defined as all subjects who received at least one full dose of study drug and who had no major protocol deviations impacting efficacy data. 199 out of the total of 218 subjects enrolled in the study were in the intention to treat population.
# The ability of RAD001 to improve immune function in elderly volunteers was evaluated by measuring the serologic response to the 2012 seasonal influenza vaccine. The hemagglutination inhibition (HI) geometric mean titers (GMT) to each of the 3 influenza vaccine strains at baseline and 4 weeks after influenza vaccination are provided in Table 10. The primary analysis variable was the HI GMT ratio (4 weeks post vaccination/baseline). […] This endpoint was chosen because a 1.2-fold increase in the influenza GMT ratio induced by the MF-59 vaccine adjuvant was associated with a decrease in influenza illness (Iob, A et al. (2005) Epidemiol Infect 133:687-693).
# Elderly volunteers >=65 years of age were randomized to one of the 3 RAD001 treatment groups (50 subjects per arm) or placebo (20 subjects per arm). […] Response to influenza vaccination was assessed by measuring the geometric mean titers (GMTs) by hemagglutination inhibition assay to the 3 influenza strains (H1N1, H3N2 and B influenza subtypes) in the influenza vaccine 4 weeks after vaccination. […] Antibody titers to 7 of the serotypes were measured in our subjects.
# pneumococcal serotypes = experiment: Antibody titers after pneumococcal vaccination (Pneumovax 23); type: in vivo, human; conditions: 7 serotypes measured; all 3 RAD cohorts
# Protocol: Elderly volunteers >=65 years of age were randomized to one of the 3 RAD001 treatment groups (50 subjects per arm) or placebo (20 subjects per arm). Subjects were treated with study drug for 6 weeks, given a 2 week break, and then received influenza (Aggrippal, Novartis) and pneumoccal (Pneumovax 23, Merck), vaccinations. Response to influenza vaccination was assessed by measuring the geometric mean titers (GMTs) by hemagglutination inhibition assay to the 3 influenza strains (H1N1, H3N2 and B influenza subtypes) in the influenza vaccine 4 weeks after vaccination. The primary endpoints of the study were (1) safety and tolerability and (2) a 1.2 fold increase in influenza titers as compared to placebo in 2/3 of the influenza vaccine strains 4 weeks after vaccination. This endpoint was chosen because a 1.2 fold increase in influenza titers is associated with a decrease in influenza illness post vaccination, and therefore is clinically relevant. […] The pneumococcal vaccine contains antigens from 23 pneumococcal serotypes. Antibody titers to 7 of the serotypes were measured in our subjects.
# [3] = Energy and exercise questionnaires one year after dosing; type: in vivo, human; conditions: 0.5 mg daily cohort
# [4] = cited from earlier work
# P70 S6K = experiment: Inhibition of P70 S6K activity in HeLa cells in vitro; conditions: Homo sapiens, read-out: % P70 S6K inhibition
# [5] = Adverse event assessment in elderly volunteers, randomized placebo-controlled trial; conditions: for Treatment-related AE incidence: Blood cholesterol increased / Treatment-related AE incidence: Conjunctivitis / Treatment-related AE incidence: Diarrhea / Treatment-related AE incidence: Dry mouth / Treatment-related AE incidence: Dyspepsia / Treatment-related AE incidence: Erythema / Treatment-related AE incidence: Fatigue / Treatment-related AE incidence: Headache / Treatment-related AE incidence: Insomnia / Treatment-related AE incidence: Limb discomfort / Treatment-related AE incidence: Low density lipoprotein increased / Treatment-related AE incidence: Mouth ulceration / Treatment-related AE incidence: Mucosal inflammation / Treatment-related AE incidence: Neutropenia / Treatment-related AE incidence: Oral pain / Treatment-related AE incidence: Paresthesia oral / Treatment-related AE incidence: Pruritus / Treatment-related AE incidence: Stomatitis / Treatment-related AE incidence: Thrombocytopenia / Treatment-related AE incidence: Tongue ulceration / Treatment-related AE incidence: Urinary tract infection / Treatment-related AEs: Patients with AE(s) / Treatment-related AEs: Total AE(s): N = 53
# [6] = week 6, pooled cohort, adjusted for baseline PD-1
# [7] = week 12, pooled cohort, adjusted for baseline PD-1
# [8] = week 12, 0.5 mg/Day, 5 mg/Week and 20 mg/Week cohorts
structure (smiles),measurement,setting,value
"CO[C@H]1C[C@@H]2CC[C@@H](C)[C@@](O)(O2)C(=O)C(=O)N2CCCC[C@H]2C(=O)O[C@H]([C@H](C)C[C@@H]2CC[C@@H](OCCO)[C@H](OC)C2)CC(=O)[C@H](C)/C=C(\C)[C@@H](O)[C@@H](OC)C(=O)[C@H](C)C[C@H](C)/C=C/C=C/C=C/1C [RAD001, (1R,9S,12S,15R,16E,18R,19R,21R,23S,24E,26E,28E,30S,32S,35R)-1,18-dihydroxy-12-{(1R)-2-[(1S,3R,4R)-4-(2-hydroxyethoxy)-3-methoxycyclohexyl]-1-methylethyl}-19,30-dimethoxy-15,17,21,23,29,35-hexamethyl-11,36-dioxa-4-aza-tricyclo[30.3.1.04,9]hexatriaconta-16,24,26,28-tetraene-2,3,10,14,20-pentaone]",decrease in PD-1+ CD4 T cells compared to placebo,[1]; [6],30.2%
same,decrease in PD-1-positive CD8 T cells compared to placebo,[1]; [6],37.4%
same,decrease in PD-1-positive CD4 T cells compared to placebo,[1]; [7],32.7%
same,decrease in PD-1-positive CD8 T cells compared to placebo,[1]; [7],41.4%
same,decrease in PD-1-positive CD4 T cells as compared to placebo,[1]; [8],−37.1-−28.5%
same,decrease in PD-1-positive CD8 T cells as compared to placebo,[1]; [8],−43.3-−38.5%
same,increase in PD-1-negative CD4 T cells as compared to placebo,[1]; [8],3.0-4.9%
same,primary endpoint (>=1.2-fold GMT increase relative to placebo in at least 2 of 3 strains),[2]; 0.5 mg daily or 5 mg weekly,met the GMT primary endpoint
same,primary endpoint (>=1.2-fold GMT increase relative to placebo in at least 2 of 3 strains),[2]; 20 mg weekly,"not higher dose (20 mg weekly) cohort met the primary endpoint; also recorded: unlike the 20 mg weekly dose, met the GMT primary endpoint"
same,increase in titers in subgroup versus ITT population,[2]; subjects with low baseline influenza titers (<=1:40),greater RAD001-associated increase in titers
same,pneumococcal antibody titers compared to placebo,pneumococcal serotypes,6/7 serotypes were increased
same,self-reported energy and exercise ability compared to placebo,[3],increased energy and exercise ability
same,average RAD001 trough level,"5 mg weekly, lower limit of quantification 0.3 ng/ml",below detection limits
same,trough level of study dosing regimens lower than approved transplant and oncology regimens,dosing regimens used in the immunization study,3-20 fold
same,trough level of RAD001,[4]; 10 mg daily oncology dosing regimen,approximately 20 ng/ml
same,trough level of RAD001,[4]; 0.75-1.5 mg bid transplant dosing regimen,approximately 3 ng/ml
same,inhibition at 6 pM,P70 S6K,0%
same,inhibition at 32 pM,P70 S6K,18%
same,inhibition at 0.0008 µM,P70 S6K,62%
same,inhibition at 0.004 µM,P70 S6K,90%
same,inhibition at 0.02 µM,P70 S6K,95%
same,Treatment-related AE incidence: Blood cholesterol increased,[5]; 0.5 mg daily,2 (3.8%) n (%)
same,Treatment-related AE incidence: Conjunctivitis,[5]; 0.5 mg daily,0 n (%)
same,Treatment-related AE incidence: Diarrhea,[5]; 0.5 mg daily,1 (1.9%) n (%)
same,Treatment-related AE incidence: Dry mouth,[5]; 0.5 mg daily,0 n (%)
same,Treatment-related AE incidence: Dyspepsia,[5]; 0.5 mg daily,0 n (%)
same,Treatment-related AE incidence: Erythema,[5]; 0.5 mg daily,0 n (%)
same,Treatment-related AE incidence: Fatigue,[5]; 0.5 mg daily,0 n (%)
same,Treatment-related AE incidence: Headache,[5]; 0.5 mg daily,0 n (%)
same,Treatment-related AE incidence: Insomnia,[5]; 0.5 mg daily,1 (1.9%) n (%)
same,Treatment-related AE incidence: Limb discomfort,[5]; 0.5 mg daily,0 n (%)
same,Treatment-related AE incidence: Low density lipoprotein increased,[5]; 0.5 mg daily,2 (3.8%) n (%)
same,Treatment-related AE incidence: Mouth ulceration,[5]; 0.5 mg daily,6 (11.3%) n (%)
same,Treatment-related AE incidence: Mucosal inflammation,[5]; 0.5 mg daily,0 n (%)
same,Treatment-related AE incidence: Neutropenia,[5]; 0.5 mg daily,0 n (%)
same,Treatment-related AE incidence: Oral pain,[5]; 0.5 mg daily,0 n (%)
same,Treatment-related AE incidence: Paresthesia oral,[5]; 0.5 mg daily,2 (3.8%) n (%)
same,Treatment-related AE incidence: Pruritus,[5]; 0.5 mg daily,0 n (%)
same,Treatment-related AE incidence: Stomatitis,[5]; 0.5 mg daily,0 n (%)
same,Treatment-related AE incidence: Thrombocytopenia,[5]; 0.5 mg daily,0 n (%)
same,Treatment-related AE incidence: Tongue ulceration,[5]; 0.5 mg daily,3 (5.7%) n (%)
same,Treatment-related AE incidence: Urinary tract infection,[5]; 0.5 mg daily,0 n (%)
same,Treatment-related AEs: Patients with AE(s),[5]; 0.5 mg daily,22 (41.5%) n (%)
same,Treatment-related AEs: Total AE(s),[5]; 0.5 mg daily,35 n (%)
same,Treatment-related AE incidence: Blood cholesterol increased,[5]; 5 mg weekly,2 (3.8%) n (%)
same,Treatment-related AE incidence: Conjunctivitis,[5]; 5 mg weekly,2 (3.8%) n (%)
same,Treatment-related AE incidence: Diarrhea,[5]; 5 mg weekly,4 (7.5%) n (%)
same,Treatment-related AE incidence: Dry mouth,[5]; 5 mg weekly,0 n (%)
same,Treatment-related AE incidence: Dyspepsia,[5]; 5 mg weekly,3 (5.7%) n (%)
same,Treatment-related AE incidence: Erythema,[5]; 5 mg weekly,2 (3.8%) n (%)
same,Treatment-related AE incidence: Fatigue,[5]; 5 mg weekly,2 (3.8%) n (%)
same,Treatment-related AE incidence: Headache,[5]; 5 mg weekly,2 (3.8%) n (%)
same,Treatment-related AE incidence: Insomnia,[5]; 5 mg weekly,2 (3.8%) n (%)
same,Treatment-related AE incidence: Limb discomfort,[5]; 5 mg weekly,2 (3.8%) n (%)
same,Treatment-related AE incidence: Low density lipoprotein increased,[5]; 5 mg weekly,1 (1.9%) n (%)
same,Treatment-related AE incidence: Mouth ulceration,[5]; 5 mg weekly,2 (3.8%) n (%)
same,Treatment-related AE incidence: Mucosal inflammation,[5]; 5 mg weekly,0 n (%)
same,Treatment-related AE incidence: Neutropenia,[5]; 5 mg weekly,0 n (%)
same,Treatment-related AE incidence: Oral pain,[5]; 5 mg weekly,2 (3.8%) n (%)
same,Treatment-related AE incidence: Paresthesia oral,[5]; 5 mg weekly,0 n (%)
same,Treatment-related AE incidence: Pruritus,[5]; 5 mg weekly,2 (3.8%) n (%)
same,Treatment-related AE incidence: Stomatitis,[5]; 5 mg weekly,0 n (%)
same,Treatment-related AE incidence: Thrombocytopenia,[5]; 5 mg weekly,0 n (%)
same,Treatment-related AE incidence: Tongue ulceration,[5]; 5 mg weekly,1 (1.9%) n (%)
same,Treatment-related AE incidence: Urinary tract infection,[5]; 5 mg weekly,0 n (%)
same,Treatment-related AEs: Patients with AE(s),[5]; 5 mg weekly,20 (37.7%) n (%)
same,Treatment-related AEs: Total AE(s),[5]; 5 mg weekly,46 n (%)
same,Treatment-related AE incidence: Blood cholesterol increased,[5]; 20 mg weekly,2 (3.8%) n (%)
same,Treatment-related AE incidence: Conjunctivitis,[5]; 20 mg weekly,0 n (%)
same,Treatment-related AE incidence: Diarrhea,[5]; 20 mg weekly,1 (1.9%) n (%)
same,Treatment-related AE incidence: Dry mouth,[5]; 20 mg weekly,2 (3.8%) n (%)
same,Treatment-related AE incidence: Dyspepsia,[5]; 20 mg weekly,2 (3.8%) n (%)
same,Treatment-related AE incidence: Erythema,[5]; 20 mg weekly,0 n (%)
same,Treatment-related AE incidence: Fatigue,[5]; 20 mg weekly,4 (7.5%) n (%)
same,Treatment-related AE incidence: Headache,[5]; 20 mg weekly,9 (17.0%) n (%)
same,Treatment-related AE incidence: Insomnia,[5]; 20 mg weekly,1 (1.9%) n (%)
same,Treatment-related AE incidence: Limb discomfort,[5]; 20 mg weekly,0 n (%)
same,Treatment-related AE incidence: Low density lipoprotein increased,[5]; 20 mg weekly,2 (3.8%) n (%)
same,Treatment-related AE incidence: Mouth ulceration,[5]; 20 mg weekly,9 (17.0%) n (%)
same,Treatment-related AE incidence: Mucosal inflammation,[5]; 20 mg weekly,2 (3.8%) n (%)
same,Treatment-related AE incidence: Neutropenia,[5]; 20 mg weekly,3 (5.7%) n (%)
same,Treatment-related AE incidence: Oral pain,[5]; 20 mg weekly,1 (1.9%) n (%)
same,Treatment-related AE incidence: Paresthesia oral,[5]; 20 mg weekly,0 n (%)
same,Treatment-related AE incidence: Pruritus,[5]; 20 mg weekly,1 (1.9%) n (%)
same,Treatment-related AE incidence: Stomatitis,[5]; 20 mg weekly,2 (3.8%) n (%)
same,Treatment-related AE incidence: Thrombocytopenia,[5]; 20 mg weekly,2 (3.8%) n (%)
same,Treatment-related AE incidence: Tongue ulceration,[5]; 20 mg weekly,0 n (%)
same,Treatment-related AE incidence: Urinary tract infection,[5]; 20 mg weekly,2 (3.8%) n (%)
same,Treatment-related AEs: Patients with AE(s),[5]; 20 mg weekly,27 (50.9%) n (%)
same,Treatment-related AEs: Total AE(s),[5]; 20 mg weekly,109 n (%)
same,tolerability,"[5]; 6 weeks, particularly the 0.5 mg daily and 5 mg weekly dosing regimens",well tolerated
same,deaths during the study,[5]; all cohorts,No deaths
same,severe AEs assessed as related to RAD001,"[5]; mouth ulcers, subject treated with 20 mg weekly",one
